# In PubChem BioAssay (NCI):
#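 In this assay, cells in 96-well plates receive the compound at five concentrations for 48 hours. Endpoints are linearly interpolated between the surrounding concentrations. Definition used: TGI = concentration required for complete inhibition of growth.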
# What was measured:
# Assay in all cases: growth of human tumour cells (NCI), 48 h
# SK-MEL-28 melanoma = test system: SK-MEL-28 melanoma
# HL-60(TB) leukemia = test system: HL-60(TB) leukemia
# SN12C renal = test system: SN12C renal
# OVCAR-8 ovarian = test system: OVCAR-8 ovarian
# SNB-78 CNS = test system: SNB-78 CNS
# NCI-H23 lung = test system: NCI-H23 lung
# IGROV1 ovarian = test system: IGROV1 ovarian
# HCT-15 colon = test system: HCT-15 colon
# SR leukemia = test system: SR leukemia
# KM12 colon = test system: KM12 colon
# HCT-116 colon = test system: HCT-116 colon
# SF-268 CNS = test system: SF-268 CNS
# SNB-75 CNS = test system: SNB-75 CNS
# KM20L2 colon = test system: KM20L2 colon
# SNB-19 CNS = test system: SNB-19 CNS
# DMS 114 small cell lung = test system: DMS 114 small cell lung
# OVCAR-3 ovarian = test system: OVCAR-3 ovarian
# UO-31 renal = test system: UO-31 renal
# RPMI-8226 leukemia = test system: RPMI-8226 leukemia
# U251 CNS = test system: U251 CNS
# HCC-2998 colon = test system: HCC-2998 colon
# LXFL 529 NSCLC = test system: LXFL 529 NSCLC
# A498 renal = test system: A498 renal
# LOX IMVI melanoma = test system: LOX IMVI melanoma
# OVCAR-5 ovarian = test system: OVCAR-5 ovarian
# MOLT-4 leukemia = test system: MOLT-4 leukemia
# SF-295 CNS = test system: SF-295 CNS
# SK-MEL-2 melanoma = test system: SK-MEL-2 melanoma
# HOP-62 NSCLC = test system: HOP-62 NSCLC
# OVCAR-4 ovarian = test system: OVCAR-4 ovarian
# COLO 205 colon = test system: COLO 205 colon
# SF-539 CNS = test system: SF-539 CNS
# SW-620 colon = test system: SW-620 colon
# ACHN renal = test system: ACHN renal
# DLD-1 colon = test system: DLD-1 colon
# CAKI-1 renal = test system: CAKI-1 renal
# TK-10 renal = test system: TK-10 renal
# DMS 273 small cell lung = test system: DMS 273 small cell lung
# UACC-62 melanoma = test system: UACC-62 melanoma
# NCI-H226 lung = test system: NCI-H226 lung
# A549 NSCLC = test system: A549 NSCLC
# HT29 colon = test system: HT29 colon
# UACC-257 melanoma = test system: UACC-257 melanoma
# RXF 393 renal = test system: RXF 393 renal
# 786-0 renal = test system: 786-0 renal
# NCI-H460 lung = test system: NCI-H460 lung
# K-562 leukemia = test system: K-562 leukemia
# M14 melanoma = test system: M14 melanoma
# CCRF-CEM leukemia = test system: CCRF-CEM leukemia
# EKVX NSCLC = test system: EKVX NSCLC
# MDA-MB-435 = test system: MDA-MB-435
# HS 578T breast = test system: HS 578T breast
# NCI/ADR-RES ovarian = test system: NCI/ADR-RES ovarian
# MDA-MB-231 breast = test system: MDA-MB-231 breast
# SK-MEL-5 melanoma = test system: SK-MEL-5 melanoma
# MCF7 breast = test system: MCF7 breast
# HOP-92 NSCLC = test system: HOP-92 NSCLC
# DU-145 prostate = test system: DU-145 prostate
# SK-OV-3 ovarian = test system: SK-OV-3 ovarian
# BT-549 breast = test system: BT-549 breast
# MDA-N = test system: MDA-N
# T-47D breast = test system: T-47D breast
# PC-3 prostate = test system: PC-3 prostate
# NCI-H522 lung = test system: NCI-H522 lung
structure (smiles),measurement,setting,value
CCOC(=O)c1cnc2cc3cccccc3n2c1=O,TGI,SK-MEL-28 melanoma,> 100000 nM
same,TGI,HL-60(TB) leukemia,> 100000 nM
same,TGI,SN12C renal,> 100000 nM
same,TGI,OVCAR-8 ovarian,> 100000 nM
same,TGI,SNB-78 CNS,> 100000 nM
same,TGI,NCI-H23 lung,> 100000 nM
same,TGI,IGROV1 ovarian,> 100000 nM
same,TGI,HCT-15 colon,> 100000 nM
same,TGI,SR leukemia,> 100000 nM
same,TGI,KM12 colon,> 100000 nM
same,TGI,HCT-116 colon,> 100000 nM
same,TGI,SF-268 CNS,> 100000 nM
same,TGI,SNB-75 CNS,> 100000 nM
same,TGI,KM20L2 colon,> 100000 nM
same,TGI,SNB-19 CNS,> 100000 nM
same,TGI,DMS 114 small cell lung,> 100000 nM
same,TGI,OVCAR-3 ovarian,> 100000 nM
same,TGI,UO-31 renal,> 100000 nM
same,TGI,RPMI-8226 leukemia,> 100000 nM
same,TGI,U251 CNS,> 100000 nM
same,TGI,HCC-2998 colon,> 100000 nM
same,TGI,LXFL 529 NSCLC,> 100000 nM
same,TGI,A498 renal,> 100000 nM
same,TGI,LOX IMVI melanoma,> 100000 nM
same,TGI,OVCAR-5 ovarian,> 100000 nM
same,TGI,MOLT-4 leukemia,> 100000 nM
same,TGI,SF-295 CNS,> 100000 nM
same,TGI,SK-MEL-2 melanoma,> 100000 nM
same,TGI,HOP-62 NSCLC,> 100000 nM
same,TGI,OVCAR-4 ovarian,> 100000 nM
same,TGI,COLO 205 colon,> 100000 nM
same,TGI,SF-539 CNS,> 100000 nM
same,TGI,SW-620 colon,> 100000 nM
same,TGI,ACHN renal,> 100000 nM
same,TGI,DLD-1 colon,> 100000 nM
same,TGI,CAKI-1 renal,> 100000 nM
same,TGI,TK-10 renal,> 100000 nM
same,TGI,DMS 273 small cell lung,> 100000 nM
same,TGI,UACC-62 melanoma,> 100000 nM
same,TGI,NCI-H226 lung,> 100000 nM
same,TGI,A549 NSCLC,> 100000 nM
same,TGI,HT29 colon,> 100000 nM
same,TGI,UACC-257 melanoma,> 100000 nM
same,TGI,RXF 393 renal,> 100000 nM
same,TGI,786-0 renal,> 100000 nM
same,TGI,NCI-H460 lung,> 100000 nM
same,TGI,K-562 leukemia,> 100000 nM
same,TGI,M14 melanoma,> 100000 nM
same,TGI,CCRF-CEM leukemia,> 100000 nM
same,TGI,EKVX NSCLC,> 100000 nM
CC(C)=CC1CC(C)C2(CCC3(C)CC4C(C(=O)CC4(C)O)/C(C=O)=C\CC32)O1 (configuration not stated),TGI,SK-MEL-28 melanoma,277 nM
same,TGI,HL-60(TB) leukemia,57.6 nM
same,TGI,SN12C renal,184 nM
same,TGI,OVCAR-8 ovarian,214 nM
same,TGI,MDA-MB-435,197 nM
same,TGI,NCI-H23 lung,264 nM
same,TGI,IGROV1 ovarian,296 nM
same,TGI,HCT-15 colon,105 nM
same,TGI,SR leukemia,94.5 nM
same,TGI,KM12 colon,262 nM
same,TGI,HCT-116 colon,150 nM
same,TGI,SF-268 CNS,275 nM
same,TGI,SNB-75 CNS,237 nM
same,TGI,SNB-19 CNS,607 nM
same,TGI,OVCAR-3 ovarian,50.3 nM
same,TGI,HS 578T breast,421 nM
same,TGI,UO-31 renal,98.9 nM
same,TGI,RPMI-8226 leukemia,61.3 nM
same,TGI,U251 CNS,197 nM
same,TGI,HCC-2998 colon,328 nM
same,TGI,A498 renal,979 nM
same,TGI,NCI/ADR-RES ovarian,443 nM
same,TGI,LOX IMVI melanoma,182 nM
same,TGI,OVCAR-5 ovarian,330 nM
same,TGI,MOLT-4 leukemia,48.3 nM
same,TGI,SF-295 CNS,515 nM
same,TGI,SK-MEL-2 melanoma,316 nM
same,TGI,HOP-62 NSCLC,274 nM
same,TGI,OVCAR-4 ovarian,147 nM
same,TGI,COLO 205 colon,153 nM
same,TGI,MDA-MB-231 breast,237 nM
same,TGI,SF-539 CNS,239 nM
same,TGI,ACHN renal,115 nM
same,TGI,SK-MEL-5 melanoma,588 nM
same,TGI,CAKI-1 renal,192 nM
same,TGI,MCF7 breast,684 nM
same,TGI,HOP-92 NSCLC,200 nM
same,TGI,TK-10 renal,59.6 nM
same,TGI,UACC-62 melanoma,368 nM
same,TGI,DU-145 prostate,267 nM
same,TGI,NCI-H226 lung,147 nM
same,TGI,A549 NSCLC,215 nM
same,TGI,HT29 colon,102 nM
same,TGI,SK-OV-3 ovarian,297 nM
same,TGI,UACC-257 melanoma,280 nM
same,TGI,RXF 393 renal,98 nM
same,TGI,BT-549 breast,351 nM
same,TGI,786-0 renal,43.8 nM
same,TGI,MDA-N,258 nM
same,TGI,NCI-H460 lung,283 nM
same,TGI,T-47D breast,143 nM
same,TGI,K-562 leukemia,232 nM
same,TGI,M14 melanoma,311 nM
same,TGI,PC-3 prostate,140 nM
same,TGI,NCI-H522 lung,97 nM
same,TGI,CCRF-CEM leukemia,42.2 nM
same,TGI,EKVX NSCLC,346 nM
